In ChEMBL document CHEMBL1125935, “(Phenylmethoxy)phenyl derivatives of omega-oxo- and omega-tetrazolylalkanoic acids and related tetrazoles. Synthesis and evaluation as leukotriene D4 receptor antagonists” (J Med Chem, 1991):

Columns and labels:
Cavia porcellus [1] = organism: Cavia porcellus; test: Antagonistic activity with LTC4 as agonist in trachea tissue of guinea pig smooth muscles.; format: functional, Muscle tissue
Cavia porcellus [2] = organism: Cavia porcellus; test: Antagonistic activity with Histamin as agonist in ileum tissue of guinea pig smooth muscles.; format: functional
Cavia porcellus [3] = organism: Cavia porcellus; test: pA2 value on guinea pig trachea tissue in presence of LTE4 as agonist; format: functional; settings: read-out: pA2 (converted)
Cavia porcellus [4] = organism: Cavia porcellus; test: Antagonistic activity with LTE4 as agonist in trachea tissue of guinea pig smooth muscles.; format: functional, Muscle tissue
Cavia porcellus [5] = organism: Cavia porcellus; test: pA2 value on guinea pig trachea tissue in presence of LTD4 as agonist; format: functional; settings: read-out: pA2 (converted)
Cavia porcellus [6] = organism: Cavia porcellus; test: Antagonistic activity with LTD4 as agonist in trachea tissue of guinea pig smooth muscles.; format: functional, Muscle tissue
Cavia porcellus [7] = organism: Cavia porcellus; test: Antagonistic activity with LTD4 as agonist in ileum tissue of guinea pig smooth muscles.; format: functional
Cavia porcellus [8] = organism: Cavia porcellus; test: pA2 value on guinea pig ileum tissue in presence of LTD4 as agonist; format: functional; settings: read-out: pA2 (converted)
Cavia porcellus [9] = organism: Cavia porcellus; test: pA2 value on guinea pig ileum tissue in presence of LTE4 as agonist; format: functional; settings: read-out: pA2 (converted)
Cavia porcellus [10] = organism: Cavia porcellus; test: Antagonistic activity with LTE4 as agonist in ileum tissue of guinea pig smooth muscles.; format: functional
Cavia porcellus [11] = organism: Cavia porcellus; test: Antagonistic activity with LTC4 as agonist in ileum tissue of guinea pig smooth muscles.; format: functional
Cavia porcellus [12] = organism: Cavia porcellus; test: pA2 value on guinea pig parenchyma tissue in presence of LTE4 as agonist; format: functional; settings: read-out: pA2 (converted)
Cavia porcellus [13] = organism: Cavia porcellus; test: Antagonistic activity with LTD4 as agonist in parenchyma tissue of guinea pig smooth muscles.; format: functional, Muscle tissue
Cavia porcellus [14] = organism: Cavia porcellus; test: pA2 value on guinea pig parenchyma tissue in presence of LTD4 as agonist; format: functional; settings: read-out: pA2 (converted)
Cavia porcellus [15] = organism: Cavia porcellus; test: Antagonistic activity with LTE4 as agonist in parenchyma tissue of guinea pig smooth muscles.; format: functional, Muscle tissue
Cavia porcellus [16] = organism: Cavia porcellus; test: Antagonistic activity with U-46,619 as agonist in trachea tissue of guinea pig smooth muscles.; format: functional, Muscle tissue
Cavia porcellus [17] = organism: Cavia porcellus; test: Antagonistic activity with Bradykinin as agonist in ileum tissue of guinea pig smooth muscles.; format: functional
Cavia porcellus [18] = organism: Cavia porcellus; test: Antagonistic activity with Carbamylcholine as agonist in trachea tissue of guinea pig smooth muscles.; format: functional, Muscle tissue

Row | Compound | pKB (Cavia porcellus [1]) | pKB (Cavia porcellus [2]) | Kb (Cavia porcellus [3]) [nM] | pKB (Cavia porcellus [4]) | Kb (Cavia porcellus [5]) [nM] | pKB (Cavia porcellus [6]) | pKB (Cavia porcellus [7]) | Kb (Cavia porcellus [8]) [nM] | Kb (Cavia porcellus [9]) [nM] | pKB (Cavia porcellus [10]) | pKB (Cavia porcellus [11]) | Kb (Cavia porcellus [12]) [nM] | pKB (Cavia porcellus [13]) | Kb (Cavia porcellus [14]) [nM] | pKB (Cavia porcellus [15]) | pKB (Cavia porcellus [16]) | pKB (Cavia porcellus [17]) | pKB (Cavia porcellus [18])
1 | CCCc1c(COc2ccc(Cc3nnn(CCCc4nnn[n-]4)n3)cc2)ccc(C(C)=O)c1O.[Na+] | 5.67 | <5 | 26.9 | 7.57 | 204 | 6.69 | 7.84 | 12 | 3.63 | 8.37 | 5.39 |  |  |  |  |  |  | 
2 | CCc1c(COc2ccc(C(=O)CC(C)(C)CC(=O)[O-])cc2)ccc(C(C)=O)c1O.[Na+] | <5 | <5 | 63.1 | 7.09 |  | 6.52 | 7.46 |  | 9.77 | 7.73 | <5 | 36.3 | 6.74 | 138 | 7.13 | <5 | <5 | <5
